# According to publication PMC12030062, “From In Vitro Cytotoxicity to In Vivo Zebrafish Assays: A Study on 3,3-Dichloro β-, γ- and δ-Lactams and Their Biological Activity Profiles” (Pharmaceuticals, 2025):
# System: A431 cell line (squamous cell carcinoma)
# Experiment: Cell viability, NRU assay, A431
# Type: cell-based, human
# Protocol: Two different endpoints, 3-(4,5-dimethyl-2-thiazolyl)-2,5-diphenyltetrazolium bromide (MTT) and neutral red uptake (NRU), were used to assess differences in cell-induced cytotoxicity. […] In addition, NRU evaluates the interaction of these drugs with the plasmatic membrane. Cell responses were determined from the MTT [16] and NRU [17] assays, using the two proposed cell lines. Cytotoxicity assays were performed at concentrations equal to 80 and 250 µg/mL. The IC50 value, referring to the half-maximal inhibitory concentration, was determined as a key parameter in cytotoxicity studies (Table 1). It plays a crucial role in evaluating cell viability and assessing cellular responses to various drugs or toxins. For cases where IC50 values were below 80 µg/mL, additional studies at lower concentrations were conducted to accurately determine these values. […] The selectivity index (SI), used as a measurement of action against the tumor cell line in comparison with a normal cell line, was also included.
# • In Vitro Assay Using Human Erythrocytes • - Acquisition and Extraction of the Erythrocytes Human blood samples were obtained from the Banc de Sang i Teixits de Barcelona (Spain) from the Catalan Department of Health. Blood was deposited in tubes with the anticoagulant EDTA-K3. Blood samples were centrifuged at 3000 rpm and 4 °C for 10 min (Megafuge 2.0 R. Heraeus Instruments, Hanau, Germany) to induce sedimentation. Plasma was extracted with a Pasteur pipette. Next, the residual pellet was washed with PBS at pH 7.4. This procedure was repeated three times to remove residual leukocytes and platelets and to concentrate the erythrocytes. Following the last wash, the erythrocyte suspension was diluted (1:1) in PBS at pH 7.4 to obtain a suitable erythrocyte suspension (cell density of 8 × 10^9 cell/mL). • - Hemolysis Assay The hemolysis assay determined the capability of different compounds to induce the hemolysis of the erythrocyte membrane. Stock solutions of each compound at 1 mg/mL in PBS at pH 7.4 were prepared. Different volumes (10–80 μL) were placed in polystyrene tubes, and an aliquot of 25 µL of the erythrocyte suspensions was added to each tube. The final volume was 1 mL. The tubes were incubated at room temperature under rotatory conditions. Then, the tubes were centrifuged at 10,000 rpm for 5 min. The supernatants’ absorbance at 540 nm (Shimadzu UV-160A, Shimadzu, Duisburg, Germany) was compared with that of the positive (erythrocytes hemolyzed with distilled water) and negative (erythrocyte suspension in PBS at pH 7.4) controls. The degree of hemolysis was determined using the following equation: Hemolysis (%) = 100 × (Abs − Abs0)/(Abs100 − Abs0) where Abs, Abs0, and Abs100 are the absorbance of the test samples, of the suspension treated with isotonic phosphate–buffered saline (PBS), and of the suspension of complete hemolysis treated with distilled water, respectively. • In Vitro Essay Using Cell Cultures The murine Swiss albino fibroblasts (3T3) and the squamous cell carcinoma (A431) cell lines were obtained from Celltec UB. Cells were grown in DMEM medium (4.5 g/L glucose) supplemented with 10% (v/v) FBS, 2 mM L-glutamine, 100 U/mL penicillin, and 100 µg/mL streptomycin at 37 °C with 5% CO2. Cells were routinely cultured in 75 cm^2 culture flasks and were trypsinized using trypsin–EDTA when the cells reached approximately 80% confluence. The trypan blue assay, which allows for the direct identification and enumeration of the live (unstained) and dead (blue) cells in the cell population, was used to evaluate the viability of the cells in the cell suspension obtained. • - Cell Viability Assays Cell lines of 3T3 (1 × 10^5 cells/mL) and A431 (5 × 10^4 cells/mL) were grown at defined densities in the 60 central wells of a 96-well plate. The cells were incubated for 24 h in 5% CO2 at 37 °C. […]
structure (smiles),measurement,setting,value
CC(C)(C)N1C(=O)C(Cl)(Cl)C1c1ccccc1 (stereo not drawn) [Compound 1],IC50 (NRU) A431,"24 h incubation, NRU endpoint, A431",35.74 ± 3.24 µg/mL
same,IC50,"Homo sapiens, A-431, 24 h, 24 h incubation, NRU endpoint, A431",35 µg/mL
same,"SI (NRU), selectivity index","SI = IC50 (3T3)/IC50 (A431), NRU",>>6.99
